Test results: PubChem BioAssay (NCI)
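Where inhibition never reached the appropriate level, the endpoint shown equals the highest concentration tested. Otherwise, values were interpolated linearly from a five-concentration, 48-hour dose response in 96-well plates. Definition used: TGI = concentration required for complete inhibition of growth.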

tested on: SNB-75 CNS; assay: DTP human tumour cell line panel, 48 h

Point of comparison: `O=[N+]([O-])c1ccc2c(c1)/C(=N/N=C1c3ccccc3Cc3ccccc31)c1cc([N+](=O)[O-])cc([N+](=O)[O-])c1-2`, TGI 9.28 µM. Against it:
- O=C1CSC(c2ccc(Cl)cc2)N1c1ccc(Oc2ccc(Cl)cc2)c(Cl)c1 (stereo unspecified) — 2.7-fold higher, 24.7 µM
- Cc1ccc(C(=O)O)cc1S(=O)(=O)Nn1cnc2ccc(S(=O)(=O)Nc3ccccc3C(=O)O)cc2c1=O — higher, > 100 µM
- CCCCCCc1cc2cc(-c3csc(CC#N)n3)c(=O)oc2cc1O — higher, > 100 µM
- C=C1C(=O)O[C@@H]2C(=O)[C@@H](C)CCC/C(C)=C/CC[C@@]3(C)O[C@@H]3C[C@@H]12 — 6.1-fold higher, 56.8 µM
- COc1cc(Br)cc2cc(-c3cn4ccsc4n3)c(=O)oc12 — higher, > 100 µM
- C[C@]12CCC(O)CC1=CC[C@@H]1[C@@H]2CC[C@]2(C)C(=O)[C@H](n3ccnc3)C[C@@H]12 (stereo partly specified) — higher, > 100 µM
- O=c1[nH]c(Nc2cccc(CC(F)(F)F)c2)nc2nc[nH]c12 — higher, > 100 µM
- COc1ccc(-c2cc(O)c3nc4ccccc4n3c2)cc1 — higher, > 100 µM
- O=C1CC(NC(=O)C(F)(F)F)c2c(Br)sc(N3CCNCC3)c21 (stereo unspecified) — higher, > 100 µM
- COc1cc2nc3n(c(=O)c2cc1OC)-c1ccc([N+](=O)[O-])cc1C3=O — higher, > 100 µM
- CC(=O)OC1CC(OC2C(O)CC(OC3C(O)CC(OC4CCC5(C)C(CCC6C5CC(O)C5(C)C(C7=CC(=O)OC7)CCC65O)C4)OC3C)OC2C)OC(C)C1OC1OC(CO)C(O)C(O)C1O (stereo unspecified) — 11-fold lower, 0.846 µM
- Nc1nc(SCCc2ccccc2)c2[nH]cnc2n1 — higher, > 100 µM
- Cc1ccc(-c2n[nH]c(=O)n2N2C(=O)c3ccccc3C2=O)cc1 — higher, > 100 µM
- COc1cc2c(c(OC)c1OC)C(=O)[C@@H]1[C@H]2N1C(N)=O — higher, > 100 µM
- COC(=O)C1SC(SC)=NC12c1ccccc1Nc1ccccc12 (stereo unspecified) — higher, > 100 µM
- CCOC(=O)C1(C/C=C/CBr)Cc2ccccc2C1=O (stereo unspecified) — 3.4-fold higher, 31.9 µM
- CN1CCc2cc(N)cc3c2C1Cc1ccc(O)c(O)c1-3 (stereo unspecified) — higher, > 100 µM
- O=C1CCCSC(=O)N1Cc1ccccc1 — higher, > 100 µM
- COC(=O)c1c(C)cccc1C1CN=NC12Cc1ccc(C)cc1C2=O (stereo unspecified) — higher, > 100 µM
- N#Cc1c(-c2ccccc2)/c(=C\Nc2cccc(C(F)(F)F)c2)c(=O)n2c1nc1ccccc12 — higher, > 100 µM
- S=C1Nc2ccccc2SC1c1ccccc1 (stereo unspecified) — 7.7-fold higher, 71.3 µM
- COC(=O)c1ccccc1CC1Cc2ccc3c(c2C1=O)CCCC3 (stereo unspecified) — higher, > 100 µM
- CN1CCN(C2=NCCO2)CC1 — higher, > 100 µM
- c1ccc(N=c2sc3ccccc3nc2Nc2ccccc2)cc1 — higher, > 100 µM
- O=C1/C(=C/c2ccccc2)N=C2Sc3c(nc[nH]c3=O)N12 — higher, > 100 µM
- C=CC1(C)CCC2C(=CCC3C2(C)CC(O)C(O)C3(C)COC2OC(C(=O)O)C(O)C(O)C2O)C1 (stereo unspecified) (tested in a mixture with another compound) — higher, > 100 µM
- N#Cc1c(N2CCCC2)ncn(-c2ccccc2)c1=O — higher, > 100 µM
- N#CC1(C#N)N[C@@H](c2ccsc2)[C@H]2C(=O)N(c3ccccc3)C(=O)[C@H]21 — higher, > 100 µM
- Cc1ccc([N+](=O)[O-])cc1NC1=NCCO1 — higher, > 100 µM
- CC(C)=CCc1c2c(c3occ(-c4ccc(O)cc4)c(=O)c3c1O)CC(C(C)(C)O)O2 (stereo unspecified) — 3.4-fold higher, 31.9 µM
- CCOC(=O)C(SCCO)C(C(=O)OCC)n1cnc2c(=O)[nH]c(NC(C)=O)nc21 (stereo unspecified) — higher, > 100 µM
- COc1cc(C2c3cc4c(cc3OC(N3CCOCC3)C2C)OCO4)ccc1O (stereo unspecified) — higher, > 58 µM
- Cc1ccccc1C(=O)N1CCc2c([nH]c3ccccc23)C1 — 6.7-fold higher, 61.9 µM
- CC[C@@H]1CC[C@@H]2[C@H](CC[C@]3(C)[C@@H](OC(C)=O)CC[C@@H]23)[C@H]1COC(C)=O — higher, > 100 µM
- NS(=O)(=O)c1ccc2c(c1)OCCOCCOCCOCCO2 — higher, > 100 µM
- COC(=O)c1cc(=O)nc2sc3cccc(C)c3n12 — higher, > 100 µM

tested on: CAKI-1 renal; assay: DTP human tumour cell line panel, 48 h

Point of comparison: `COc1cc2nc3n(c(=O)c2cc1OC)-c1ccc([N+](=O)[O-])cc1C3=O`, TGI 92.1 µM. Against it:
- O=C1CSC(c2ccc(Cl)cc2)N1c1ccc(Oc2ccc(Cl)cc2)c(Cl)c1 (stereo unspecified) — 3.5-fold lower, 26 µM
- Cc1ccc(C(=O)O)cc1S(=O)(=O)Nn1cnc2ccc(S(=O)(=O)Nc3ccccc3C(=O)O)cc2c1=O — higher, > 100 µM
- CCCCCCc1cc2cc(-c3csc(CC#N)n3)c(=O)oc2cc1O — higher, > 100 µM
- C=C1C(=O)O[C@@H]2C(=O)[C@@H](C)CCC/C(C)=C/CC[C@@]3(C)O[C@@H]3C[C@@H]12 — 2.5-fold lower, 37.5 µM
- COc1cc(Br)cc2cc(-c3cn4ccsc4n3)c(=O)oc12 — higher, > 100 µM
- C[C@]12CCC(O)CC1=CC[C@@H]1[C@@H]2CC[C@]2(C)C(=O)[C@H](n3ccnc3)C[C@@H]12 (stereo partly specified) — higher, > 100 µM
- O=c1[nH]c(Nc2cccc(CC(F)(F)F)c2)nc2nc[nH]c12 — higher, > 100 µM
- COc1ccc(-c2cc(O)c3nc4ccccc4n3c2)cc1 — higher, > 100 µM
- O=C1CC(NC(=O)C(F)(F)F)c2c(Br)sc(N3CCNCC3)c21 (stereo unspecified) — higher, > 100 µM
- CC(=O)OC1CC(OC2C(O)CC(OC3C(O)CC(OC4CCC5(C)C(CCC6C5CC(O)C5(C)C(C7=CC(=O)OC7)CCC65O)C4)OC3C)OC2C)OC(C)C1OC1OC(CO)C(O)C(O)C1O (stereo unspecified) — 1000-fold lower, 0.0904 µM
- Nc1nc(SCCc2ccccc2)c2[nH]cnc2n1 — higher, > 100 µM
- Cc1ccc(-c2n[nH]c(=O)n2N2C(=O)c3ccccc3C2=O)cc1 — higher, > 100 µM
- COc1cc2c(c(OC)c1OC)C(=O)[C@@H]1[C@H]2N1C(N)=O — higher, > 100 µM
